28 substances from patent US9029337B2, “Modulation of factor 7 expression” (Isis Pharmaceuticals, Inc., priority 2007, dated 2015) can be followed below.

Common to all, as to assay type: cell-based
Series [1] concerns human Factor 7 mRNA. In words: Antisense inhibition of human Factor 7 mRNA in HepB3 cells, 50 nM antisense oligonucleotide, lipofectin. The conditions noted are these: for % Inhibition: lipofectin, 50 nM antisense oligonucleotide, approximately 24 hours, Factor 7 mRNA by real-time RT-PCR (RTS 2927), relative to untreated control; for % Inhibition of human Factor 7 mRNA levels: gapmers targeted to nucleobases 4868 to 4899 of SEQ ID NO: 1, Table 8. Put shortly: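 Percent inhibition, untreated cells as reference: derived from RNA collected about 24 hours post-transfection of 4,000-cell wells, with the human RTS 2927 primer probe set and adjustment for total RNA content (RIBOGREEN®).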
For orientation: In qPCR the cycle at which signal appears reflects the starting amount.

In series [2] the test system is human Factor 7 mRNA. In words: Dose-dependent antisense inhibition of human Factor 7 in HepB3 cells, lipofectin. The conditions noted are these: for percent inhibition of Factor 7: approximately 16 hours; for percent inhibition of Factor 7 mRNA, relative to untreated control cells: HepB3 cells, approx. 16 hours (Table 14). On the procedure:
Cells were plated at a density of 4,000 cells per well and treated with lipofectin reagent with 3.125 nM, 6.25 nM, 12.5 nM, 25 nM, 50 nM, and 100 nM concentrations of antisense oligonucleotide, as indicated in Table 3. After a treatment period of approximately 16 hours, RNA was isolated from the cells and Factor 7 mRNA levels were measured by real-time RT-PCR, as described herein. Human Factor 7 primer probe set RTS 2927 (forward sequence: […], incorporated herein as SEQ ID NO: 164; reverse sequence: […], incorporated herein as SEQ ID NO: 165; probe sequence: TGGGTGGTCTCCGCGGCCX, incorporated herein as SEQ ID NO: 166) was used to measure mRNA levels. Factor 7 mRNA levels were adjusted according to total RNA content as measured by RIBOGREEN®. Results are presented as percent inhibition of Factor 7, relative to untreated control cells.
Cells were plated at a density of 4,000 cells per well and transfected using lipofectin reagent with 6.25 nM, 12.5 nM, 25.0 nM, 50.0 nM, and 100.0 nM concentrations of antisense oligonucleotide, as indicated in Table 7. After a treatment period of approximately 16 hours, RNA was isolated from the cells and Factor 7 mRNA levels were measured by real-time RT-PCR, as described herein. Human Factor 7 primer probe set RTS 2927 was used to measure mRNA levels. Factor 7 mRNA levels were adjusted according to total RNA content as measured by RIBOGREEN®. Results are presented as percent inhibition of Factor 7, relative to untreated control cells.
Cells were plated at a density of 4,000 cells per well and transfected using lipofectin reagent with 3.125 nM, 6.25 nM, 12.5 nM, 25 nM, 50 nM, and 100 nM concentrations of antisense oligonucleotide, as specified in Table 14. After a treatment period of approximately 16 hours, RNA was isolated from the cells and Factor 7 mRNA levels were measured by quantitative real-time PCR. Human Factor 7 primer probe set RTS 2927 was used to measure mRNA levels. Factor 7 mRNA levels were adjusted according to total RNA content, as measured by RIBOGREEN®. Results are presented as percent inhibition of Factor 7, relative to untreated control cells.

Series [3] has as its system human Factor 7 mRNA. In words: Antisense inhibition of human Factor 7 with short (14-mer) oligonucleotides in HepB3 cells, electroporation 1,000 nM. The following applies: electroporation, 1,000 nM antisense oligonucleotide, approximately 24 hours, Factor 7 mRNA relative to untreated control cells. From the text:
Short antisense oligonucleotides (shortmers) were designed to target a Factor 7 nucleic acid. The shortmers in Table 17 were designed as 2-10-2 MOE gapmers. The gapmers are 14 nucleotides in length, wherein the central gap segment is comprised of 10 2′-deoxynucleotides and is flanked on both sides (in the 5′ and 3′ directions) by wings comprising 2 nucleotides each. Each nucleotide in the 5′ wing segment and each nucleotide in the 3′ wing segment has a 2′-MOE modification. The internucleoside linkages throughout each gapmer are phosphorothioate (P═S) linkages. All cytidine residues throughout each gapmer are 5-methylcytidines.
Shortmers were evaluated for their ability to reduce human Factor 7 mRNA in HepB3 cells and compared with one 5-10-5 chimeric oligonucleotide from Table 16, ISIS 407939. HepB3 cells at a density of 20,000 cells per well in a 96-well plate were transfected using electroporation with 1,000 nM of antisense oligonucleotide. After a treatment period of approximately 24 hours, RNA was isolated from the cells and Factor 7 mRNA levels were measured by real-time RT-PCR, as described herein. Factor 7 mRNA levels were adjusted according to total RNA content as measured by RIBOGREEN®. Results are presented in Table 17 as percent inhibition of Factor 7 mRNA, relative to untreated control cells. ISIS 407939 is the first oligonucleotide in Table 17 to which the shortmers were compared, and is marked by an asterisk (*).

Strand notation (5' to 3'): a small letter for the sugar, then the base; units joined by * are phosphorothioate-linked, units joined directly phosphodiester-linked; [ ] holds rarer units or linkages, { } end groups; capitals alone tell only the bases. e = 2'-O-(2-methoxyethyl) (MOE); [5mC] = 5-methylcytosine; d = 2'-deoxy (DNA)

In the case of “416507 (antisense eG*eG*eT*eT*eA*d[5mC]*dT*dG*dA*dG*d[5mC]*dG*d[5mC]*dG*dG*eA*eA*eG*eA*eA) [compound 416507]”, the % Inhibition – broadly, the change of the read-out against control, counted positive when it falls – in the series on human Factor 7 mRNA [1] amounted to 73%. For the same substance, the “percent inhibition of Factor 7” value worked out at 30% in the series with human Factor 7 mRNA [2] (Table 7, 6.25 nM); 53% in the series on human Factor 7 mRNA [2] (Table 7, 12.5 nM); 70% in the series with human Factor 7 mRNA [2] (Table 7, 25.0 nM); 77% in the series with human Factor 7 mRNA [2] (Table 7, 50.0 nM); 72% in the series with human Factor 7 mRNA [2] (Table 7, 100.0 nM).

As for “416508 (antisense e[5mC]*eG*eA*eG*eT*dT*d[5mC]*dT*dG*d[5mC]*dA*dG*dG*dA*dG*e[5mC]*eG*eG*e[5mC]*e[5mC]) [compound 416508]”, in the series on human Factor 7 mRNA [1], the “% Inhibition of human Factor 7 mRNA levels” value worked out at 67%. Also, the “% Inhibition” value in the series on human Factor 7 mRNA [1] was 67%. Further, the “percent inhibition of Factor 7” value is 42% in the series on human Factor 7 mRNA [2] (Table 7, 6.25 nM); 51% with human Factor 7 mRNA [2] (Table 7, 12.5 nM); 71% with human Factor 7 mRNA [2] (Table 7, 25.0 nM); 79% in the series with human Factor 7 mRNA [2] (Table 7, 50.0 nM); 89% in the series on human Factor 7 mRNA [2] (Table 7, 100.0 nM).

“416549 (antisense eG*eA*e[5mC]*eA*eA*dT*dG*dG*dT*d[5mC]*dA*dG*dG*dG*d[5mC]*eT*eG*eG*eT*eT) [compound 416549]”: the “% Inhibition” value in the series with human Factor 7 mRNA [1] was 68%. For the same substance, the “% Inhibition (human Factor 7 mRNA levels)” value in the series with human Factor 7 mRNA [1] (oligonucleotides targeted to nucleobases 11830 to 11869 of SEQ ID NO: 1 (Table 9)) was determined as 69%. Further, the “percent inhibition of Factor 7” value in the series with human Factor 7 mRNA [2] (Table 7, 6.25 nM) came to 38%; in the series on human Factor 7 mRNA [2] (Table 7, 12.5 nM) it was 44%; in the series on human Factor 7 mRNA [2] (Table 7, 25.0 nM) it was 63%; with human Factor 7 mRNA [2] (Table 7, 50.0 nM), 73%; in the series on human Factor 7 mRNA [2] (Table 7, 100.0 nM), 78%.

As to “422294 (antisense eG*eA*dG*dT*dT*d[5mC]*dT*dG*d[5mC]*dA*dG*dG*dA*dG*d[5mC]*eG*eG*e[5mC]*e[5mC]*eT) [compound 422294]”, the “% Inhibition of human Factor 7 mRNA levels” value with human Factor 7 mRNA [1] stood at 78%. Moreover, the “percent inhibition of Factor 7 mRNA, relative to untreated control cells” value is 9% with human Factor 7 mRNA [2] (3.125 nM); 32% with human Factor 7 mRNA [2] (12.5 nM); 61% in the series with human Factor 7 mRNA [2] (25 nM); 77% in the series with human Factor 7 mRNA [2] (50 nM); 84% with human Factor 7 mRNA [2] (100 nM); 21% in the series with human Factor 7 mRNA [2].

As for “435478 (antisense eG*eA*dG*dG*d[5mC]*dA*d[5mC]*dA*d[5mC]*dT*dG*dG*eT*e[5mC]) [compound 435478]”, the “% Inhibition” value in the series on human Factor 7 mRNA [3] stood at 43%.

Turning to “435479 (antisense e[5mC]*eA*d[5mC]*dT*d[5mC]*d[5mC]*d[5mC]*d[5mC]*dT*dT*dT*dG*eG*eG) [compound 435479]”, the “% Inhibition” value with human Factor 7 mRNA [3] amounted to 9%.

Take “435480 (antisense eG*eG*dT*d[5mC]*dA*dT*d[5mC]*dA*dG*d[5mC]*d[5mC]*dG*eG*eG) [compound 435480]”: in the series with human Factor 7 mRNA [3], the “% Inhibition” value was 53%.

Regarding “435481 (antisense eG*eG*dG*dT*d[5mC]*dA*dT*d[5mC]*dA*dG*d[5mC]*d[5mC]*eG*eG) [compound 435481]”, the “% Inhibition” value with human Factor 7 mRNA [3] is on record as 50%.

“435482 (antisense eT*eG*dG*dG*dT*d[5mC]*dA*dT*d[5mC]*dA*dG*d[5mC]*e[5mC]*eG) [compound 435482]”: the “% Inhibition” value with human Factor 7 mRNA [3] was 62%.

On to “435483 (antisense e[5mC]*eT*dG*dG*dG*dT*d[5mC]*dA*dT*d[5mC]*dA*dG*e[5mC]*e[5mC]) [compound 435483]”, for which the “% Inhibition” value in the series on human Factor 7 mRNA [3] was determined as 82%.

Take “435484 (antisense e[5mC]*e[5mC]*dT*dG*dG*dG*dT*d[5mC]*dA*dT*d[5mC]*dA*eG*e[5mC]) [compound 435484]”: in the series on human Factor 7 mRNA [3], the “% Inhibition” value is given as 45%.

With “435485 (antisense eT*e[5mC]*d[5mC]*dT*dG*dG*dG*dT*d[5mC]*dA*dT*d[5mC]*eA*eG) [compound 435485]”, in the series with human Factor 7 mRNA [3], the “% Inhibition” value stood at 34%.

As to “435486 (antisense eG*eT*d[5mC]*d[5mC]*dT*dG*dG*dG*dT*d[5mC]*dA*dT*e[5mC]*eA) [compound 435486]”, the “% Inhibition” value in the series on human Factor 7 mRNA [3] is 64%.

On to “435487 (antisense eA*eG*dT*d[5mC]*d[5mC]*dT*dG*dG*dG*dT*d[5mC]*dA*eT*e[5mC]) [compound 435487]”, for which the “% Inhibition” value with human Factor 7 mRNA [3] came to 36%.

For the substance “435488 (antisense e[5mC]*eA*dG*dT*d[5mC]*d[5mC]*dT*dG*dG*dG*dT*d[5mC]*eA*eT) [compound 435488]”, in the series on human Factor 7 mRNA [3], the “% Inhibition” value is listed as 17%.

As to “435489 (antisense e[5mC]*eT*dG*dG*dT*dG*dT*dA*d[5mC]*dA*d[5mC]*d[5mC]*e[5mC]*e[5mC]) [compound 435489]”, the “% Inhibition” value in the series with human Factor 7 mRNA [3] is listed as 72%.

In the case of “435490 (antisense e[5mC]*e[5mC]*dT*dG*dG*dT*dG*dT*dA*d[5mC]*dA*d[5mC]*e[5mC]*e[5mC]) [compound 435490]”, in the series on human Factor 7 mRNA [3], the “% Inhibition” value amounted to 49%.

Turning to “435491 (antisense e[5mC]*e[5mC]*d[5mC]*dT*dG*dG*dT*dG*dT*dA*d[5mC]*dA*e[5mC]*e[5mC]) [compound 435491]”, the “% Inhibition” value in the series with human Factor 7 mRNA [3] is on record as 61%.

Take “435492 (antisense eA*e[5mC]*d[5mC]*d[5mC]*dT*dG*dG*dT*dG*dT*dA*d[5mC]*eA*e[5mC]) [compound 435492]”: the “% Inhibition” value in the series on human Factor 7 mRNA [3] is reported as 45%.

For the substance “435493 (antisense eG*eA*d[5mC]*d[5mC]*d[5mC]*dT*dG*dG*dT*dG*dT*dA*e[5mC]*eA) [compound 435493]”, the “% Inhibition” value in the series on human Factor 7 mRNA [3] stood at 58%.

As to “435494 (antisense eA*eG*dA*d[5mC]*d[5mC]*d[5mC]*dT*dG*dG*dT*dG*dT*eA*e[5mC]) [compound 435494]”, in the series with human Factor 7 mRNA [3], the “% Inhibition” value turned out to be 47%.

Take “435495 (antisense eG*eA*dG*dA*d[5mC]*d[5mC]*d[5mC]*dT*dG*dG*dT*dG*eT*eA) [compound 435495]”: the “% Inhibition” value in the series with human Factor 7 mRNA [3] is given as 27%.

For the substance “435496 (antisense eG*eG*dA*dG*dA*d[5mC]*d[5mC]*d[5mC]*dT*dG*dG*dT*eG*eT) [compound 435496]”, in the series on human Factor 7 mRNA [3], the “% Inhibition” value stood at 47%.

With “435497 (antisense eG*eG*dG*dA*dG*dA*d[5mC]*d[5mC]*d[5mC]*dT*dG*dG*eT*eG) [compound 435497]”, the “% Inhibition” value in the series with human Factor 7 mRNA [3] is recorded as 27%.

Consider “435498 (antisense eT*eG*dG*dG*dA*dG*dA*d[5mC]*d[5mC]*d[5mC]*dT*dG*eG*eT) [compound 435498]”, for which the “% Inhibition” value with human Factor 7 mRNA [3] is 37%.

As to “435499 (antisense e[5mC]*eT*dG*dG*dG*dA*dG*dA*d[5mC]*d[5mC]*d[5mC]*dT*eG*eG) [compound 435499]”, the “% Inhibition” value in the series on human Factor 7 mRNA [3] was determined as 59%.

In the case of “435500 (antisense eA*e[5mC]*dT*dG*dG*dG*dA*dG*dA*d[5mC]*d[5mC]*d[5mC]*eT*eG) [compound 435500]”, the “% Inhibition” value in the series on human Factor 7 mRNA [3] came out at 49%.

Regarding “435501 (antisense eT*eA*d[5mC]*dT*dG*dG*dG*dA*dG*dA*d[5mC]*d[5mC]*e[5mC]*eT) [compound 435501]”, the “% Inhibition” value in the series on human Factor 7 mRNA [3] stood at 51%.
